{"source": "paper PMC3421038", "about": "(The Pediatric infectious disease journal, 2012)", "key": {"[1]": {"conditions": "in vivo"}, "[2]": {"system": "hepatic cytochrome P450 enzyme system", "conditions": "cited from earlier work"}, "[3]": {"conditions": "human, in vivo, iv, 6 mg/kg"}, "[4]": {"conditions": "human, in vivo, cited from earlier work"}, "[5]": {"conditions": "in vivo, cited from earlier work"}, "[6]": {"conditions": "human, in vivo; cited from earlier work"}}, "note": "Where two headings read alike, the source gives them in different places."}
{"smiles": "CCCCCCCCCC(=O)N[C@@H](Cc1c[nH]c2ccccc12)C(=O)N[C@H](CC(N)=O)C(=O)N[C@@H](CC(=O)O)C(=O)N[C@@H]1C(=O)NCC(=O)N[C@@H](CCCN)C(=O)N[C@@H](CC(=O)O)C(=O)N[C@H](C)C(=O)N[C@@H](CC(=O)O)C(=O)NCC(=O)N[C@H](CO)C(=O)N[C@@H]([C@H](C)CC(=O)O)C(=O)N[C@@H](CC(=O)c2ccccc2N)C(=O)O[C@@H]1C", "note": "[daptomycin]", "values": [{"measurement": "CPK value after the dose of daptomycin", "setting": "[1]", "result": 86, "unit": "IU/L"}, {"measurement": "CPK value before the dose of daptomycin", "setting": "[1]", "result": 132, "unit": "IU/L"}, {"measurement": "calcium level after the daptomycin dose", "setting": "[1]", "result": 9.7}, {"measurement": "calcium level before the daptomycin dose", "setting": "[1]", "result": 9.3}, {"measurement": "respiratory rate, temperature, heart rate, or mean blood pressure during the daptomycin infusion", "setting": "[1]; 6 mg/kg", "result": "No significant changes"}, {"measurement": "adverse events classified as serious adverse events", "setting": "[1]; iv, 6 mg/kg", "result": "Five"}, {"measurement": "adverse events related to study drug", "setting": "[1]; iv, 6 mg/kg", "result": "None"}, {"measurement": "adverse events reported (number of events)", "setting": "[1]; iv, 6 mg/kg", "result": 34}, {"measurement": "subjects with adverse events", "setting": "[1]; iv, 6 mg/kg", "result": 55, "unit": "%"}, {"measurement": "effect on the hepatic cytochrome P450 enzyme system", "setting": "[2]", "result": "does not have an effect"}, {"measurement": "AUC(0-t)", "setting": "[3]", "result": 262, "unit": "µg·h/mL"}, {"measurement": "Cmax", "setting": "[3]", "result": 25500, "unit": "ng/mL"}, {"measurement": "clearance", "setting": "[3]", "result": 0.35, "unit": "mL/min/kg"}, {"measurement": "half-life", "setting": "[3]", "result": 372, "unit": "min"}, {"measurement": "mean exposure (AUCinf)", "setting": "[4]; 8 mg/kg", "result": 429, "unit": "mg·h/L"}, {"measurement": "mean exposure (AUCinf)", "setting": "[4]; 10 mg/kg", "result": 550, "unit": "mg·h/L"}, {"measurement": "mean exposure (AUCinf)", "setting": "[5]; 4 mg/kg", "result": 417, "unit": "mg·h/L"}, {"measurement": "administered dose excreted within 24 hours as intact drug", "setting": "[5]", "result": 50, "unit": "%"}, {"measurement": "kinetics (dose linearity)", "setting": "[5]", "result": "linear kinetics"}, {"measurement": "patients with cellulitis as serious adverse event", "setting": "[6]", "result": 1.3, "unit": "%"}, {"measurement": "patients with elevation of CPK concentrations", "setting": "[6]", "result": 2.1, "unit": "%"}, {"measurement": "renal toxicity", "setting": "[6]", "result": "does not cause renal toxicity"}]}
